According to US20130072427A1, “GPR 119 MODULATORS” (Pfizer Inc., priority 2009, published 2013):
pEC50: −log10 of the molar value. Several values for one entry are separate records, joined by “and”; a condition that tells them apart may be missing. Equal entries are not always repeated. Where two headings read alike, the source gives them in different places.

Target: T1, human GPR119 (Homo sapiens, UniProt Q8TDV5)
T1 construct: host or cells: HEK293-CRE beta-lactamase cells
T1 sequence (Q8TDV5 1-335): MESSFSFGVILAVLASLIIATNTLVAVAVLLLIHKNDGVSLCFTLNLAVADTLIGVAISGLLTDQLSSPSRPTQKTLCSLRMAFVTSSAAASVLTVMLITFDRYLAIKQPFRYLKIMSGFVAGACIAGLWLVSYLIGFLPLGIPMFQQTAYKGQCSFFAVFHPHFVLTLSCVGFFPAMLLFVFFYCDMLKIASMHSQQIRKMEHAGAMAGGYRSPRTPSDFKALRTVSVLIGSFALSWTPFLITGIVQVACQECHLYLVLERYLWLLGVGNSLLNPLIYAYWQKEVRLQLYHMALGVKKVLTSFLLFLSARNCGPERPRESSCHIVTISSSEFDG
Assay: cAMP functional assay (HTRF, hGPR119 HEK-CRE beta-lactamase cells)
Format: cell-based
Conditions: for pEC50: hGPR119 HEK-CRE beta-lactamase cells, HTRF cAMP, 30 minutes, read-out: Human cAMP Functional EC50
Experimental: GPR119 agonist activity was also determined with a cell-based assay utilizing an HTRF (Homogeneous Time-Resolved Fluorescence) cAMP detection kit (cAMP dynamic 2 Assay Kit; Cis Bio cat #62AM4PEC) that measures cAMP levels in the cell. The method is a competitive immunoassay between native cAMP produced by the cells and the cAMP labeled with the dye d2. The tracer binding is visualized by a Mab anti-cAMP labeled with Cryptate. The specific signal (i.e. energy transfer) is inversely proportional to the concentration of cAMP in either standard or sample.
Specifically, hGPR119HEK-CRE beta-lactamase cells (Invitrogen 2.5×10^7/ml; the same cell line used in the beta-lactamase assay described above) are removed from cryopreservation and diluted in growth medium (Dulbecco's modified Eagle medium high glucose (DMEM; Gibco Cat #11995-065), 1% charcoal dextran treated fetal bovine serum (CD serum; HyClone Cat #SH30068.03), 1×MEM Nonessential amino acids (Gibco Cat #15630-080) and 25 mM HEPES pH 7.0 (Gibco Cat #15630-080)). The cell concentration was adjusted to 1.5×10^5 cells/ml and 30 mls of this suspension was added to a T-175 flask and incubated at 37 degrees Celsius in a humidified environment in 5% carbon dioxide. After 16 hours (overnight), the cells were removed from the T-175 flask (by rapping the side of the flask), centrifuged at 800×g and then re-suspended in assay medium (1×HBSS+CaCl2+MgCl2 (Gibco Cat #14025-092) and 25 mM HEPES pH 7.0 (Gibco Cat #15630-080)). The cell concentration was adjusted to 6.25×10^5 cells/ml with assay medium and 8 μl of this cell suspension (5000 cells) was added to each well of a white Greiner 384-well, low-volume assay plate (VWR cat #82051-458).
Varying concentrations of each compound to be tested were diluted in assay buffer containing 3-isobutyl-1-methylxanthin (IBMX; Sigma cat #15879) and added to the assay plate wells in a volume of 2 microL (final IBMX concentration was 400 microM and final DMSO concentration was 0.58%). Following 30 minutes incubation at room temperature, 5 microL of labeled d2 cAMP and 5 microL of anti-cAMP antibody (both diluted 1:20 in cell lysis buffer; as described in the manufacturers assay protocol) were added to each well of the assay plate. The plates were then incubated at room temperature and after 60 minutes, changes in the HTRF signal were read with an Envision 2104 multilabel plate reader using excitation of 330 nm and emissions of 615 and 665 nm. Raw data were converted to nM cAMP by interpolation from a cAMP standard curve (as described in the manufacturer's assay protocol) and EC50 determinations were made from an agonist-response curves analyzed with a curve fitting program using a 4-paramter logistic dose response equation.

[1] = percent of maximal activity relative to standard GPR119 agonist (WO2005121121) at 10 μM, one line per run, read-out: Intrinsic Activity* (%) (cAMP)

SMILES: Cc1c(O[C@H]2CCN(C(=O)OC(C)(C)C)C[C@H]2F)ncnc1N1Cc2cnn(C)c2C1 (racemic) [Example 6, tert-Butyl (3,4-cis)-3-fluoro-4-{[5-methyl-6-(1-methyl-4,6-dihydropyrrolo[3,4-c]pyrazol-5(1H)-yl)pyrimidin-4-yl]oxy}piperidine-1-carboxylate (racemic)]
- pEC50 (one line per run): 7.41 and 7.46 and 6.88 and 6.54
- Emax [1]: 60%

SMILES: Cc1c(O[C@H]2CCN(C(=O)OC3(C)CC3)C[C@H]2F)ncnc1N1Cc2cnn(C)c2C1 (racemic) [Example 7, 1-Methylcyclopropyyl (3,4-cis)-3-fluoro-4-{[5-methyl-6-(1-methyl-4,6-dihydropyrrolo[3,4-c]pyrazol-5(1H)-yl)pyrimidin-4-yl]oxy}piperidine-1-carboxylate (racemic)]
- pEC50 (one line per run): 7.77 and 7.85 and 7.92
- Emax [1]: 80%

SMILES: Cc1c(O[C@H]2CCN(C(=O)OC(C)(C)C)C[C@@H]2F)ncnc1N1Cc2cnn(C)c2C1 (racemic) [Example 8, tert-Butyl (3,4-trans)-3-fluoro-4-{[5-methyl-6-(1-methyl-4,6-dihydropyrrolo[3,4-c]pyrazol-5(1H)-yl)pyrimidin-4-yl]oxy}piperidine-1-carboxylate (racemic)]
- pEC50 (one line per run): 6.74 and 7.11 and 7.07

SMILES: Cc1c(OC2CCN(C(=O)OC(C)C)CC2)ncnc1N1Cc2cnn(C)c2C1 [Example 2, Isopropyyl 4-{[5-methyl-6-(1-methyl-4,6-dihydropyrrolo[3,4-c]pyrazol-5(1H)-yl)pyrimidin-4-yl]oxy}piperidine-1-carboxylate]
- pEC50 (one line per run): 6.53 and 6.77 and 6.87 and 6.36
- Emax [1]: 45%

SMILES: CC(C)OC(=O)N1CCC(Oc2ncnc(N3Cc4cnn(C)c4C3)c2C#N)CC1 [Example 3, Isopropyyl 4-{[5-cyano-6-(1-methyl-4,6-dihydropyrrolo[3,4-c]pyrazol-5(1H)-yl)pyrimidin-4-yl]oxy}piperidine-1-carboxylate]
- EC50 (**the curve was extrapolated to 100% to calculate an EC50, read-out: Human cAMP Functional EC50 (nM), curve extrapolated to 100%): 6250 nM
- Emax (**the curve was extrapolated to 100% to calculate an EC50, read-out: Intrinsic Activity* (%) (cAMP), curve extrapolated to 100%): 100%
- Emax [1]: 51%

SMILES: Cc1c(O[C@H]2[C@@H]3COC[C@H]2CN(C(=O)OC(C)(C)C)C3)ncnc1N1Cc2cnn(C)c2C1 [Example 9, tert-Butyl (9-anti)-9-{[5-methyl-6-(1-methyl-4,6-dihydropyrrolo[3,4-c]pyrazol-5(1H)-yl)pyrimidin-4-yl]oxy}-3-oxa-7-azabicyclo[3.3.1]nonane-7-carboxylate]
- pEC50 (one line per run): 7.19 and 7.24 and 7.11
- Emax [1]: 72%
